Measured values from patent US20250257064A1, “TRIFLUOROMETHYL-SUBSTITUTED SULFONAMIDE AS BCL-2-SELECTIVE INHIBITOR” (Chia Tai Tianqing Pharmaceutical Group Co., Ltd., priority 2018, published 2025).

Experiments:
BCL-2/BAK = biological target: T1, BCL-2/BAK (Homo sapiens, UniProt P10415); experiment: Screening on inhibitory activity for BCL-2/BAK binding (Cisbio HTRF kit)
T1 construct: purchased Cisbio
Outline: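 HTRF competition assay: Tag1-BCL-2 and Tag2-BAK working dilutions were 5 nM and 120 nM. Compound (200–0.0488 nM final, 4-fold, 7 points, duplicates) was incubated with the proteins for 15 min at 25 °C, then with Eu-cryptate/XL665 antibodies for ≥2 h at 25 °C. IC50 was derived from a four-parameter fit.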

BCL-XL/BAK = biological target: T2, BCL-XL/BAK (Homo sapiens, UniProt Q07817); experiment: Screening on inhibitory activity for BCL-XL/BAK binding (Cisbio HTRF kit)
T2 construct: purchased Cisbio
Outline: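 Tag1-BCL-XL and Tag2-BAK (2 nM and 80 nM before mixing) were combined with compounds at final 2000–0.488 nM (4-fold, 7 points, duplicates) for 15 min at 25° C. Eu3+ anti-Tag1 and XL665 anti-Tag2 were then added for ≥2 h at 25° C. HTRF (620/665 nm) gave IC50 by four-parameter fit.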

[1] = In vitro stability in mouse liver microsomes; type: in vitro ADME; conditions: 1 μM
Procedure: (§1) Experimental Example 3: In Vitro Stability in Liver Microsome
(§2) 300 μL of the final incubation system contains 30 μL of liver microsomes (protein concentration: 5 mg/mL), 30 μL of NADPH+MgCl2, 3 μL of the test compound (in acetonitrile), and 237 μL of PBS buffer (pH 7.4), wherein the proportion of the organic solvent (acetonitrile) is 1% (volume ratio). Two duplicate samples were prepared for each specie (mouse, rat and human), and each sample was 0.3 mL. Each tube which was added with 270 μL of a mixed solution of substrate and enzyme, and NADPH, after being pre-incubated at 37° C. for 5 min, was added with 30 μL of NADPH+MgCl2 and mixed. Then 50 μL of the mixture was taken at 0 min, 15 min, 30 min and 60 min, and added with 300 μL of glacial acetonitrile containing an internal standard to terminate the reaction.
(§3) 50 μL of the incubated sample was added with 300 μL of glacial acetonitrile containing an internal standard (20 ng/mL diazepam) for precipitation, vortexed for 5 min, and centrifuged (13,000 rpm, 20° C.) for 10 min. 70 μL of supernatant was taken and diluted with 70 μL of ultrapure water. After being mixed well, 1 μL of the resulting sample was injected for analysis.

[2] = In vitro stability in rat liver microsomes; type: in vitro ADME; conditions: 1 μM
Procedure: as §1, §2, §3

[3] = tested on: human B-cell leukemia RS4;11 subcutaneous xenograft; experiment: Pharmacodynamics in human B-cell leukemia RS4;11 subcutaneous xenograft model; type: in vivo, NOD/SCID mice; conditions: Day 17 after the end of administration
Text: Experimental Example 5: Pharmacodynamics of Compounds in Human B-Cell Leukemia RS4; 11 Subcutaneous Xenograft Model
NOD/SCID mice, female, 9-10 weeks old (ages upon tumor cell grafting), body weight of 16.3-22.0 g, purchased from Beijing AniKeeper Biotech Co., Ltd.; production license number: SCXK (Jing) 2017-0006, and animal certification number: 11402400013155. Breeding environment: SPF grade. Mice were grafted subcutaneously on the right anterior dorsal side with 1×10^7 RS4;11 cells. The day of grafting was defined as day 0. When the mean tumor volume was 240 mm^3, the mice were randomly grouped according to the tumor size. The administration was performed as per Table 5 below.
Clinical symptoms observed during the experiment were recorded in the raw data. The calculation formula for tumor volume: Tumor volume (mm^3)=½×(a×b^2) (where a represents long diameter and b represents short diameter). The data were collected using StudyDirector™ software (version No. 3.1.399.19, supplier: Studylog System, Inc., S.San Francisco, CA, USA) in the experiment, including measurements of the long and short diameters of the tumor and weighing results of the animals. The raw data obtained from a balance and a vernier caliper were directly imported into the software, and any change in the data was recorded. Relative tumor proliferation rate (T/C %) refers to the percentage of the relative tumor volume or tumor weight of the treatment and control groups at a certain time point. The calculation formula is as follows:
T/C %=TRTV/CRTV×100% (TRTV: mean RTV for treatment group; CRTV: mean RTV for vehicle control group; RTV=Vt/V0, where V0 is the tumor volume of the animal upon grouping, and Vt is the tumor volume of the animal after treatment).
(T and C are the relative tumor volume (RTV) or tumor weight (TW) at a particular time point for the treatment and control groups, respectively).
All experimental results were expressed as mean tumor volume±SEM (standard error of mean). The relative tumor volume of the treatment group was compared with that of the control group for any significant difference by the independent sample T test. All data were analyzed using SPSS 18.0. p<0.05 was defined as a significant difference.

T1 sequence (P10415 whole entry, species assumed): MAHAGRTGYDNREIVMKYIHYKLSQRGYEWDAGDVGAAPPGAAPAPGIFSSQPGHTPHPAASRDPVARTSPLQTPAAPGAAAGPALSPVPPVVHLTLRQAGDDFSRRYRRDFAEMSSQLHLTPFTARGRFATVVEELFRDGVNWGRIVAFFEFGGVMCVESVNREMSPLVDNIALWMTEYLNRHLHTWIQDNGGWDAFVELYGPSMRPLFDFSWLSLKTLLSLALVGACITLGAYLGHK
T2 sequence (Q07817 whole entry, species assumed): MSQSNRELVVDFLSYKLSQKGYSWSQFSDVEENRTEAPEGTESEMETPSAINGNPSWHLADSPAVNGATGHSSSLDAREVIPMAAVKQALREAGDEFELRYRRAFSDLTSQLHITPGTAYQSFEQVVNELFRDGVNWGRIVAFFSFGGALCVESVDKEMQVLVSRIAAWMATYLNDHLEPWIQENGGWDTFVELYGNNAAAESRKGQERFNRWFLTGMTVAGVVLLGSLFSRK

| SMILES | IC50 (BCL-2/BAK) [µM] | IC50 (BCL-XL/BAK) [µM] | Mouse Residual content after 60 min (%) [1] [%] | Rat Residual content after 60 min (%) [2] [%] | T/C (%) ([3]; 25 mg/kg p.o. one dose) | TGI (%) ([3]; 25 mg/kg p.o. one dose) | Tumor volume (x ± S) ([3]; 25 mg/kg p.o. one dose) [mm^3] | Relative tumor volume (x ± S) ([3]; 25 mg/kg p.o. one dose) | Relative tumor volume (x ± S) ([3]; 50 mg/kg p.o. one dose) | T/C (%) ([3]; 50 mg/kg p.o. one dose) | TGI (%) ([3]; 50 mg/kg p.o. one dose) | Tumor volume (x ± S) ([3]; 50 mg/kg p.o. one dose) [mm^3] |
| --- | --- | --- | --- | --- | --- | --- | --- | --- | --- | --- | --- | --- |
| CC1(C)CCC(CN2CCN(c3ccc(C(=O)NS(=O)(=O)c4ccc(NC[C@H]5COCCO5)c([N+](=O)[O-])c4)c(Oc4cnc5[nH]ccc5c4)c3)CC2)=C(c2ccc(C(F)(F)F)cc2Cl)C1 [Compound 8-1] | 0.0028 | 0.155 | 73.9 | 90.9 | 29.8 | 70.2 | 600.39 ± 32.88 |  |  |  |  |  |
| CC1(C)CCC(CN2CCN(c3ccc(C(=O)NS(=O)(=O)c4ccc(NCC5CCOCC5)c([N+](=O)[O-])c4)c(Oc4cnc5[nH]ccc5c4)c3)CC2)=C(c2ccc(C(F)(F)F)cc2Cl)C1 [Compound 1-1, 4-(4-{[2-(2-chloro-4-trifluoromethylphenyl)-4,4-dimethylcyclohex-1-enyl]methyl}-piperazin-1-yl)-N-({3-nitro-4-[(tetrahydro-2H-pyran-4-ylmethyl)amino]phenyl}sulfonyl)-2-(1H-pyrrolo[2,3-b]pyridin-5-yloxy)-benzamide] | 0.0027 | 0.133 | 78.9 | 88.4 | 51.5 | 48.5 | 1024.97 ± 160.59 | 4.39 ± 0.83 | 1.92 ± 0.36 | 22.5 | 77.5 | 465.78 ± 95.68 |
